Columns and labels:
B16 = test: In vitro cytotoxic activity was evaluated against B16 melanoma cells relative to taxol; ED50/ED50; type: functional
[1] = In vitro cytotoxic activity was evaluated by microtubule assembly assay relative to taxol; ED50/ED50; type: functional

SMILES	Ratio (B16)	Ratio [1]
CC(=O)O[C@H]1C(=O)[C@@]2(C)C([C@H](OC(=O)C3CCCCC3)[C@]3(O)C[C@H](OC(=O)[C@H](O)C(NC(=O)C4CCCCC4)C4CCCCC4)C(C)=C1C3(C)C)[C@]1(OC(C)=O)CO[C@@H]1C[C@@H]2O (some centres not stated)	1.6	0.47
CC(=O)O[C@H]1C(=O)[C@@]2(C)C([C@H](OC(=O)c3ccccc3)[C@]3(O)C[C@H](OC(=O)[C@H](O)C(NC(=O)c4ccccc4)C4CCCCC4)C(C)=C1C3(C)C)[C@]1(OC(C)=O)CO[C@@H]1C[C@@H]2O (some centres not stated)	0.91	0.29
CC(=O)O[C@H]1C(=O)[C@@]2(C)C([C@H](OC(=O)c3ccccc3)[C@]3(O)C[C@H](OC(=O)[C@H](O)C(NC(=O)OC(C)(C)C)c4ccccc4)C(C)=C1C3(C)C)[C@]1(OC(C)=O)CO[C@@H]1C[C@@H]2O (some centres not stated)	0.23	0.55
CC(=O)O[C@H]1C(=O)[C@@]2(C)C([C@H](OC(=O)C3CCCCC3)[C@]3(O)C[C@H](OC(=O)[C@H](O)C(NC(=O)OC(C)(C)C)c4ccccc4)C(C)=C1C3(C)C)[C@]1(OC(C)=O)CO[C@@H]1C[C@@H]2O (some centres not stated)	1.1	0.67
CC(=O)O[C@@]12CO[C@@H]1C[C@H](O)[C@@]1(C)C(=O)[C@H](O)C3=C(C)[C@@H](OC(=O)[C@H](O)[C@@H](NC(=O)OC(C)(C)C)c4ccccc4)C[C@@](O)([C@@H](OC(=O)c4ccccc4)[C@H]21)C3(C)C.O.O.O [DOCETAXEL]	0.41	0.45
CC(=O)O[C@H]1C(=O)[C@@]2(C)[C@H]([C@H](OC(=O)c3ccccc3)[C@]3(O)C[C@H](OC(=O)[C@H](O)[C@@H](NC(=O)c4ccccc4)c4ccccc4)C(C)=C1C3(C)C)[C@]1(OC(C)=O)CO[C@@H]1C[C@@H]2O [PACLITAXEL]	1	1

Reference: ChEMBL document CHEMBL1127747, “The effect of the aromatic rings of taxol on biological activity and solution conformation: synthesis and evaluation of saturated taxol and taxotere analogues” (1994)
